# Test results published in patent publication US20150105252A1, “SUBSTITUTED PYRAZOLES AS HERBICIDES” (E I DU PONT DE NEMOURS AND COMPANY, priority 2013, published 2015).
# Experiments:
# [1] = test system: barnyardgrass; experiment: Test C flooded paddy test; type: in vivo, Echinochloa crus-galli; details: Flood
# In short: (§1)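 Under a constant 3 cm flood, test compounds went directly into the paddy water. Following 13 to 15 days of greenhouse growth, treated species and controls were compared by eye.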
# [2] = test system: rice; experiment: Test C flooded paddy test; type: in vivo, Oryza sativa; details: Flood
# In short: as §1
# [3] = test system: pigweed; experiment: Test A preemergence; type: in vivo, Amaranthus retroflexus; details: 0 to 100 scale
# In short: (§2)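 Injury readout: eye-scored versus untreated controls, 0 to 100. Exposure period: ~10 days, greenhouse. Application: soil-directed spray over sown seed (pre) or spray on seedlings 2–10 cm tall with one or two leaves (post), compound carried in non-phytotoxic solvent including surfactant.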
# [4] = test system: foxtail, giant; experiment: Test C preemergence; type: in vivo, Setaria faberii; details: for Plant response rating (scale of 0 to 100), Foxtail, Giant: Preemergence, 250 g ai/ha; for Foxtail, Giant plant response rating / Plant response rating, Foxtail, Giant: preemergence; for Plant response rating, Foxtail, Giant: 62 g ai/ha, scale 0 to 100, 0 = no effect, 100 = complete control
# In short: (§3)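 Postemergence values come from plants sprayed at the 1- to 4-leaf stage (2–18 cm) in peat moss–vermiculite medium; preemergence values from seeds treated in a loam–sand blend. Both evaluated visually against controls after 13–15 greenhouse days, scale 0–100.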
# [5] = test system: sedge, umbrella; experiment: Test C flooded paddy test; type: in vivo, Cyperus difformis; details: Flood
# In short: as §1
# [6] = test system: morningglory; experiment: Test A preemergence; type: in vivo, Ipomoea spp.; details: 0 to 100 scale
# In short: as §2
# [7] = test system: nutsedge, yellow; experiment: Test C preemergence; type: in vivo, Cyperus esculentus; details: for Plant response rating (scale of 0 to 100), Nutsedge, Yellow: Preemergence, 250 g ai/ha; for Nutsedge, Yellow plant response rating / Plant response rating, Nutsedge, Yellow: preemergence; for Plant response rating, Nutsedge, Yellow: 62 g ai/ha, scale 0 to 100, 0 = no effect, 100 = complete control
# In short: as §3
# [8] = test system: ducksalad; experiment: Test C flooded paddy test; type: in vivo, Heteranthera limosa; details: Flood
# In short: as §1
# [9] = test system: galium; experiment: Test C postemergence; type: in vivo, Galium aparine; details: for Galium plant response rating: scale 0 to 100
# In short: as §3
# [10] = 31 g ai/ha, scale 0 to 100 (0 no effect, 100 complete control)
# [11] = 62 g ai/ha, scale 0 to 100 (0 no effect, 100 complete control)
# [12] = Preemergence, 500 g ai/ha, 0 no effect, 100 complete control
# [13] = preemergence, 125 g ai/ha, visual injury, approx. 10 days
# [14] = 31 g ai/ha, scale 0 to 100 (0 no effect, 100 complete control), 13 to 15 days
# [15] = 125 g ai/ha, scale 0 to 100, 0 is no effect, 100 is complete control
# [16] = postemergence, 250 g ai/ha, scale 0 to 100 (0 no effect, 100 complete control)
# [17] = postemergence, 125 g ai/ha, scale 0 to 100, 0 no effect, 100 complete control
# [18] = Preemergence, 1000 g ai/ha, 0 no effect, 100 complete control
SMILES,"Plant response rating, Barnyardgrass [1, 10]","Plant response rating, Barnyardgrass [1, 11]","Plant response rating, Barnyardgrass ([1]; 125 g ai/ha, scale 0 to 100)","Plant response rating, Barnyardgrass ([1]; 250 g ai/ha, scale 0 to 100)","Plant response rating, Rice [2, 10]","Plant response rating, Rice [2, 11]","Plant response rating, Rice ([2]; 125 g ai/ha, scale 0 to 100)","Plant response rating, Rice ([2]; 250 g ai/ha, scale 0 to 100)","Plant response rating (scale of 0 to 100), Foxtail, Giant [4]","Foxtail, Giant plant response rating [4, 14]","Plant response rating, Foxtail, Giant ([4]; 13 to 15 days)","Foxtail, Giant plant response rating [4, 15]","Plant response rating, Sedge, Umbrella [5, 10]","Plant response rating, Sedge, Umbrella [5, 11]","Plant response rating, Sedge, Umbrella ([5]; 125 g ai/ha, scale 0 to 100)","Plant response rating, Sedge, Umbrella ([5]; 250 g ai/ha, scale 0 to 100)","Plant response rating (scale of 0 to 100), Nutsedge, Yellow [7]","Nutsedge, Yellow plant response rating [7, 14]","Plant response rating, Nutsedge, Yellow ([7]; 13 to 15 days)","Nutsedge, Yellow plant response rating [7, 15]",also measured
CCONC(=O)c1cc(CC)n(Cc2cccc(OC(F)(F)F)c2)n1 [Compound 72],0,20,20,20,0,0,0,30,100,65,80,85,50,60,65,65,85,0,40,60,"Pigweed plant response rating [3, 12]: 100; Pigweed plant response rating [3, 13]: 100; Morningglory plant response rating [6, 12]: 90; Morningglory plant response rating [6, 13]: 60; Plant response rating, Ducksalad [8, 10]: 0; Plant response rating, Ducksalad [8, 11]: 70; Plant response rating, Ducksalad ([8]; 125 g ai/ha, scale 0 to 100): 75; Plant response rating, Ducksalad ([8]; 250 g ai/ha, scale 0 to 100): 75; Galium plant response rating ([9]; Postemergence, 31 g ai/ha): 45; Galium plant response rating ([9]; postemergence, 62 g ai/ha): 70; Plant response rating, Galium [9, 16]: 80; Plant response rating, Galium [9, 17]: 70"
Cc1cc(C(=O)NCC(F)(F)F)nn1Cc1ccnc(C(F)(F)F)c1 [Compound 74],0,15,15,15,0,15,15,15,100,80,100,100,0,0,0,90,98,15,60,80,"Pigweed plant response rating [3, 18]: 100; Morningglory plant response rating [6, 18]: 100; Plant response rating, Ducksalad [8, 10]: 0; Plant response rating, Ducksalad [8, 11]: 0; Plant response rating, Ducksalad ([8]; 125 g ai/ha, scale 0 to 100): 0; Plant response rating, Ducksalad ([8]; 250 g ai/ha, scale 0 to 100): 90; Galium plant response rating ([9]; Postemergence, 31 g ai/ha): 60; Galium plant response rating ([9]; postemergence, 62 g ai/ha): 60; Plant response rating, Galium [9, 16]: 85; Plant response rating, Galium [9, 17]: 80"
